From article PMC11537071, “Identification and characterization of a carbohydrate recognition domain-like region in Entamoeba histolytica Gal/GalNAc lectin intermediate subunit” (Microbiology Spectrum, 2024)

Tests used:
Igl-C3 = target: T1, Igl-C3 (Entamoeba histolytica, UniProt Q964D2); test: competition with FITC-PNA on Caco-2 cells; hemagglutination inhibition; assay type: cell-based; settings: 60 mM sugar, 300 nM protein, on ice; also hemagglutination of human group O erythrocytes
T1 construct: gene igl1; CRD-like region, residues 989-1,088 (100 aa), His-tagged, pET-19b, E. coli BL21 Star(DE3)pLysS

Igl-C = target: T2, Igl-C (Entamoeba histolytica, UniProt Q964D2); test: competition with FITC-PNA on Caco-2 cells; assay type: cell-based; settings: 60 mM sugar, 300 nM protein, on ice
T2 construct: gene igl1; C-terminal segment, 486 aa (contains Igl-C0 to C3, ends at about residue 1,088), His-tagged, pET-19b, E. coli BL21 Star(DE3)pLysS
T2 sequence (Q964D2 entry or part of it): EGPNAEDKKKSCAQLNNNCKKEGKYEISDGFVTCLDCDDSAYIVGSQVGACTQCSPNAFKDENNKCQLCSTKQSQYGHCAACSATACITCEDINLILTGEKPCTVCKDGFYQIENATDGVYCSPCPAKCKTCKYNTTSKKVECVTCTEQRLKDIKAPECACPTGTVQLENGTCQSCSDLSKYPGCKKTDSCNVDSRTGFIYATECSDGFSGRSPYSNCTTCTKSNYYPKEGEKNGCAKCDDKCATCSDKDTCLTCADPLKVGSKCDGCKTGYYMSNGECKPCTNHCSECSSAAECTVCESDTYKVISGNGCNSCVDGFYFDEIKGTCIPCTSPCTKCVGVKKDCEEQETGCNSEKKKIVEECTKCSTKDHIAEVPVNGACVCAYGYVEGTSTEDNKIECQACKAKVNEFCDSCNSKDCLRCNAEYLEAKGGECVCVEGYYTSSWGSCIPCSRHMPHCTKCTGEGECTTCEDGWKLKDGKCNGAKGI

T1 sequence (Q964D2 entry or part of it): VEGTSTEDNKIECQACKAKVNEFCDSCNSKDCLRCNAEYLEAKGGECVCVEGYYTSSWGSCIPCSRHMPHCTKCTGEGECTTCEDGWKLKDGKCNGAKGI

| Compound | competition with FITC-PNA on Caco-2 cells; hemagglutination inhibition (Igl-C3) | competition with FITC-PNA on Caco-2 cells (Igl-C) |
| --- | --- | --- |
| CC(=O)N[C@H]1C(O)O[C@H](CO)[C@H](O)[C@@H]1O (stereo partly drawn) [GalNAc, N-acetyl-D-galactosamine] | only Igl-C3 exhibited obvious hemagglutinating activity, which could be inhibited by Gal/GalNAc | this competitive process could in turn be weakened by the addition of Gal and GalNAc |
| OC[C@H]1OC(O)[C@H](O)[C@@H](O)[C@H]1O (stereo partly shown) [Gal, galactose] | only Igl-C3 exhibited obvious hemagglutinating activity, which could be inhibited by Gal/GalNAc | this competitive process could in turn be weakened by the addition of Gal and GalNAc |
